{
  "source": "paper PMC4895178",
  "about": "(Scientific Reports, 2016)",
  "origin": "cited, not measured here",
  "details": "in plasma",
  "from_the_text": "The pioneering work of Vale et al.[8] established that residues 7 to 10 form the ph ...",
  "data": [
    {"smiles": "C[C@H](N)C(=O)NCC(=O)N[C@H]1CSSC[C@@H](C(=O)O)NC(=O)[C@H](CO)NC(=O)[C@H]([C@@H](C)O)NC(=O)[C@H](Cc2ccccc2)NC(=O)[C@H]([C@@H](C)O)NC(=O)[C@H](CCCCN)NC(=O)[C@H](Cc2c[nH]c3ccccc23)NC(=O)[C@H](Cc2ccccc2)NC(=O)[C@H](Cc2ccccc2)NC(=O)[C@H](CC(N)=O)NC(=O)[C@H](CCCCN)NC1=O", "note": "[Somatostatin (SRIF), Somatostatin]", "values": [
      {"measurement": "half-life", "result": "2 to 3", "unit": "min"}
    ]}
  ]
}
